Test results published in ChEMBL document CHEMBL4706653, “Ultra-short lipopeptides against gram-positive bacteria while alleviating antimicrobial resistance” (Eur J Med Chem, 2021).
≈ marks a conversion by molar mass, not a printed value. Residues, ends and D or L forms follow the SMILES beside them. *: point of attachment. Myristoyl = CCCCCCCCCCCCCC(=O)*; Lauroyl = CCCCCCCCCCCC(=O)*; Decanoyl = CCCCCCCCCC(=O)*; Octanoyl = CCCCCCCC(=O)*

Columns and labels:
[1] = system: Staphylococcus epidermidis; assay: Antimicrobial activity against Staphylococcus epidermidis ATCC 12228 after 18 hrs by broth microdilution method; type: functional
[2] = system: Staphylococcus aureus; assay: Antimicrobial activity against Staphylococcus aureus ATCC 25923 after 18 hrs by broth microdilution method; type: functional
[3] = system: Staphylococcus aureus; assay: Antimicrobial activity against Staphylococcus aureus ATCC 29213 after 18 hrs by broth microdilution method; type: functional
[4] = system: Bacillus subtilis; assay: Antimicrobial activity against Bacillus subtilis ATCC 23857 after 18 hrs by broth microdilution method; type: functional
[5] = system: Staphylococcus aureus; assay: Antimicrobial activity against methicillin-resistant Staphylococcus aureus 75 after 18 hrs by broth microdilution method; type: functional
[6] = system: Staphylococcus aureus; assay: Antimicrobial activity against methicillin-resistant Staphylococcus aureus 113 after 18 hrs by broth microdilution method; type: functional
[7] = system: Erythrocyte; assay: Hemolytic activity against mouse erythrocytes measured after 1 hr; type: ADME, cell-based
[8] = Therapeutic index, ratio of MHC for mouse RBC to geometric mean of peptide MIC for Staphylococcus epidermidis ATCC 12228; type: toxicity; settings: pooled result: one value given for 6 cell lines, strains, targets or settings, read-out: TI

CCCCCCCCCC(=O)N[C@@H](CCCNC(=N)N)C(=O)N[C@@H](CCCNC(=N)N)C(=O)N[C@@H](CCCNC(=N)N)C(N)=O (Decanoyl-Arg-Arg-Arg-NH2)
MIC [1]: 64 µM (≈ 41 µg/mL) | MIC [2]: 128 µM (≈ 81.9 µg/mL) | MIC [3]: 128 µM (≈ 81.9 µg/mL) | MIC [4]: 32 µM (≈ 20.5 µg/mL) | MIC [5]: 128 µM (≈ 81.9 µg/mL) | MIC [6]: 128 µM (≈ 81.9 µg/mL) | MHC10 [7]: > 256 µM | selectivity ratio [8]: 5.05

CCCCCCCCCC(=O)N[C@@H](CCCNC(=N)N)C(=O)N[C@@H](CCCNC(=N)N)C(=O)N[C@@H](Cc1c[nH]c2ccccc12)C(N)=O (Decanoyl-Arg-Arg-Trp-NH2)
MIC [1]: 16 µM (≈ 10.7 µg/mL) | MIC [2]: 32 µM (≈ 21.4 µg/mL) | MIC [3]: 16 µM (≈ 10.7 µg/mL) | MIC [4]: 8 µM (≈ 5.36 µg/mL) | MIC [5]: 16 µM (≈ 10.7 µg/mL) | MIC [6]: 8 µM (≈ 5.36 µg/mL) | MHC10 [7]: > 256 µM | selectivity ratio [8]: 32

CCCCCCCCCC(=O)N[C@@H](CCCNC(=N)N)C(=O)N[C@@H](Cc1c[nH]c2ccccc12)C(=O)N[C@@H](CCCNC(=N)N)C(N)=O (Decanoyl-Arg-Trp-Arg-NH2)
MIC [1]: 16 µM (≈ 10.7 µg/mL) | MIC [2]: 16 µM (≈ 10.7 µg/mL) | MIC [3]: 32 µM (≈ 21.4 µg/mL) | MIC [4]: 16 µM (≈ 10.7 µg/mL) | MIC [5]: 16 µM (≈ 10.7 µg/mL) | MIC [6]: 16 µM (≈ 10.7 µg/mL) | MHC10 [7]: > 256 µM | selectivity ratio [8]: 3.43

CCCCCCCCCC(=O)N[C@@H](CCCNC(=N)N)C(=O)N[C@@H](Cc1c[nH]c2ccccc12)C(=O)N[C@@H](Cc1c[nH]c2ccccc12)C(N)=O (Decanoyl-Arg-Trp-Trp-NH2)
MIC [1]: 32 µM (≈ 22.4 µg/mL) | MIC [2]: 32 µM (≈ 22.4 µg/mL) | MIC [3]: 16 µM (≈ 11.2 µg/mL) | MIC [4]: 16 µM (≈ 11.2 µg/mL) | MIC [5]: 8 µM (≈ 5.6 µg/mL) | MIC [6]: 8 µM (≈ 5.6 µg/mL) | MHC10 [7]: > 256 µM | selectivity ratio [8]: 27.4

CCCCCCCCCC(=O)N[C@@H](Cc1c[nH]c2ccccc12)C(=O)N[C@@H](CCCNC(=N)N)C(=O)N[C@@H](CCCNC(=N)N)C(N)=O (Decanoyl-Trp-Arg-Arg-NH2)
MIC [1]: 8 µM (≈ 5.36 µg/mL) | MIC [2]: 8 µM (≈ 5.36 µg/mL) | MIC [3]: 16 µM (≈ 10.7 µg/mL) | MIC [4]: 8 µM (≈ 5.36 µg/mL) | MIC [5]: 16 µM (≈ 10.7 µg/mL) | MIC [6]: 16 µM (≈ 10.7 µg/mL) | MHC10 [7]: 256 µM | selectivity ratio [8]: 21.3

CCCCCCCCCCCC(=O)N[C@@H](CCCNC(=N)N)C(=O)N[C@@H](CCCNC(=N)N)C(=O)N[C@@H](CCCNC(=N)N)C(N)=O (Lauroyl-Arg-Arg-Arg-NH2)
MIC [1]: 16 µM (≈ 10.7 µg/mL) | MIC [2]: 32 µM (≈ 21.4 µg/mL) | MIC [3]: 16 µM (≈ 10.7 µg/mL) | MIC [4]: 8 µM (≈ 5.34 µg/mL) | MIC [5]: 32 µM (≈ 21.4 µg/mL) | MIC [6]: 16 µM (≈ 10.7 µg/mL) | MHC10 [7]: > 256 µM | selectivity ratio [8]: 25.6

CCCCCCCCCCCC(=O)N[C@@H](CCCNC(=N)N)C(=O)N[C@@H](Cc1c[nH]c2ccccc12)C(=O)N[C@@H](CCCNC(=N)N)C(N)=O (Lauroyl-Arg-Trp-Arg-NH2)
MIC [1]: 8 µM (≈ 5.58 µg/mL) | MIC [2]: 16 µM (≈ 11.2 µg/mL) | MIC [3]: 8 µM (≈ 5.58 µg/mL) | MIC [4]: 8 µM (≈ 5.58 µg/mL) | MIC [5]: 4 µM (≈ 2.79 µg/mL) | MIC [6]: 4 µM (≈ 2.79 µg/mL) | MHC10 [7]: 64 µM | selectivity ratio [8]: 8

CCCCCCCCCCCC(=O)N[C@@H](CCCNC(=N)N)C(=O)N[C@@H](Cc1c[nH]c2ccccc12)C(=O)N[C@@H](Cc1c[nH]c2ccccc12)C(N)=O (Lauroyl-Arg-Trp-Trp-NH2)
MIC [1]: 64 µM (≈ 46.6 µg/mL) | MIC [2]: 32 µM (≈ 23.3 µg/mL) | MIC [3]: 64 µM (≈ 46.6 µg/mL) | MIC [4]: 64 µM (≈ 46.6 µg/mL) | MIC [5]: 8 µM (≈ 5.82 µg/mL) | MIC [6]: 8 µM (≈ 5.82 µg/mL) | MHC10 [7]: > 256 µM | selectivity ratio [8]: 12.8

CCCCCCCCCCCC(=O)N[C@@H](Cc1c[nH]c2ccccc12)C(=O)N[C@@H](CCCNC(=N)N)C(=O)N[C@@H](CCCNC(=N)N)C(N)=O (Lauroyl-Trp-Arg-Arg-NH2)
MIC [1]: 8 µM (≈ 5.58 µg/mL) | MIC [2]: 8 µM (≈ 5.58 µg/mL) | MIC [3]: 8 µM (≈ 5.58 µg/mL) | MIC [4]: 8 µM (≈ 5.58 µg/mL) | MIC [5]: 8 µM (≈ 5.58 µg/mL) | MIC [6]: 4 µM (≈ 2.79 µg/mL) | MHC10 [7]: 64 µM | selectivity ratio [8]: 8.73

CCCCCCCCCCCCCC(=O)N[C@@H](CCCNC(=N)N)C(=O)N[C@@H](CCCNC(=N)N)C(=O)N[C@@H](CCCNC(=N)N)C(N)=O (Myristoyl-Arg-Arg-Arg-NH2)
MIC [1]: 8 µM (≈ 5.57 µg/mL) | MIC [2]: 16 µM (≈ 11.1 µg/mL) | MIC [3]: 64 µM (≈ 44.5 µg/mL) | MIC [4]: 8 µM (≈ 5.57 µg/mL) | MIC [5]: 8 µM (≈ 5.57 µg/mL) | MIC [6]: 8 µM (≈ 5.57 µg/mL) | MHC10 [7]: 128 µM | selectivity ratio [8]: 6.86

CCCCCCCCCCCCCC(=O)N[C@@H](CCCNC(=N)N)C(=O)N[C@@H](CCCNC(=N)N)C(=O)N[C@@H](Cc1c[nH]c2ccccc12)C(N)=O (Myristoyl-Arg-Arg-Trp-NH2)
MIC [1]: 8 µM (≈ 5.81 µg/mL) | MIC [2]: 8 µM (≈ 5.81 µg/mL) | MIC [3]: 4 µM (≈ 2.9 µg/mL) | MIC [4]: 8 µM (≈ 5.81 µg/mL) | MIC [5]: 2 µM (≈ 1.45 µg/mL) | MIC [6]: 2 µM (≈ 1.45 µg/mL) | MHC10 [7]: 32 µM | selectivity ratio [8]: 6

CCCCCCCCCCCCCC(=O)N[C@@H](CCCNC(=N)N)C(=O)N[C@@H](Cc1c[nH]c2ccccc12)C(=O)N[C@@H](CCCNC(=N)N)C(N)=O (Myristoyl-Arg-Trp-Arg-NH2)
MIC [1]: 4 µM (≈ 2.9 µg/mL) | MIC [2]: 8 µM (≈ 5.81 µg/mL) | MIC [3]: 8 µM (≈ 5.81 µg/mL) | MIC [4]: 8 µM (≈ 5.81 µg/mL) | MIC [5]: 4 µM (≈ 2.9 µg/mL) | MIC [6]: 4 µM (≈ 2.9 µg/mL) | MHC10 [7]: 64 µM | selectivity ratio [8]: 10.7

CCCCCCCCCCCCCC(=O)N[C@@H](Cc1c[nH]c2ccccc12)C(=O)N[C@@H](CCCNC(=N)N)C(=O)N[C@@H](CCCNC(=N)N)C(N)=O (Myristoyl-Trp-Arg-Arg-NH2)
MIC [1]: 4 µM (≈ 2.9 µg/mL) | MIC [2]: 8 µM (≈ 5.81 µg/mL) | MIC [3]: 8 µM (≈ 5.81 µg/mL) | MIC [4]: 4 µM (≈ 2.9 µg/mL) | MIC [5]: 2 µM (≈ 1.45 µg/mL) | MIC [6]: 2 µM (≈ 1.45 µg/mL) | MHC10 [7]: 64 µM | selectivity ratio [8]: 13.7

CCCCCCCC(=O)N[C@@H](CCCNC(=N)N)C(=O)N[C@@H](CCCNC(=N)N)C(=O)N[C@@H](CCCNC(=N)N)C(N)=O (Octanoyl-Arg-Arg-Arg-NH2)
MIC [1]: > 128 µM | MIC [2]: > 128 µM | MIC [3]: > 128 µM | MIC [4]: > 128 µM | MIC [5]: > 128 µM | MIC [6]: > 128 µM | MHC10 [7]: > 256 µM

CCCCCCCC(=O)N[C@@H](CCCNC(=N)N)C(=O)N[C@@H](CCCNC(=N)N)C(=O)N[C@@H](Cc1c[nH]c2ccccc12)C(N)=O (Octanoyl-Arg-Arg-Trp-NH2)
MIC [1]: 64 µM (≈ 41.1 µg/mL) | MIC [2]: 64 µM (≈ 41.1 µg/mL) | MIC [3]: 64 µM (≈ 41.1 µg/mL) | MIC [4]: 32 µM (≈ 20.5 µg/mL) | MIC [5]: 64 µM (≈ 41.1 µg/mL) | MIC [6]: 128 µM (≈ 82.2 µg/mL) | MHC10 [7]: > 256 µM | selectivity ratio [8]: 7.38

CCCCCCCC(=O)N[C@@H](CCCNC(=N)N)C(=O)N[C@@H](Cc1c[nH]c2ccccc12)C(=O)N[C@@H](CCCNC(=N)N)C(N)=O (Octanoyl-Arg-Trp-Arg-NH2)
MIC [1]: 128 µM (≈ 82.2 µg/mL) | MIC [2]: > 128 µM | MIC [3]: 128 µM (≈ 82.2 µg/mL) | MIC [4]: 64 µM (≈ 41.1 µg/mL) | MIC [5]: 128 µM (≈ 82.2 µg/mL) | MIC [6]: 128 µM (≈ 82.2 µg/mL) | MHC10 [7]: > 256 µM | selectivity ratio [8]: 3.69

CCCCCCCC(=O)N[C@@H](CCCNC(=N)N)C(=O)N[C@@H](Cc1c[nH]c2ccccc12)C(=O)N[C@@H](Cc1c[nH]c2ccccc12)C(N)=O (Octanoyl-Arg-Trp-Trp-NH2)
MIC [1]: 16 µM (≈ 10.7 µg/mL) | MIC [2]: 16 µM (≈ 10.7 µg/mL) | MIC [3]: 16 µM (≈ 10.7 µg/mL) | MIC [4]: 16 µM (≈ 10.7 µg/mL) | MIC [5]: 8 µM (≈ 5.37 µg/mL) | MIC [6]: 32 µM (≈ 21.5 µg/mL) | MHC10 [7]: > 256 µM | selectivity ratio [8]: 29.5

CCCCCCCC(=O)N[C@@H](Cc1c[nH]c2ccccc12)C(=O)N[C@@H](CCCNC(=N)N)C(=O)N[C@@H](CCCNC(=N)N)C(N)=O (Octanoyl-Trp-Arg-Arg-NH2)
MIC [1]: 32 µM (≈ 20.5 µg/mL) | MIC [2]: 128 µM (≈ 82.2 µg/mL) | MIC [3]: 128 µM (≈ 82.2 µg/mL) | MIC [4]: 64 µM (≈ 41.1 µg/mL) | MIC [5]: 64 µM (≈ 41.1 µg/mL) | MIC [6]: 128 µM (≈ 82.2 µg/mL) | MHC10 [7]: > 256 µM | selectivity ratio [8]: 5.65

CN[C@H](CC(C)C)C(=O)N[C@H]1C(=O)N[C@@H](CC(N)=O)C(=O)N[C@H]2C(=O)N[C@H]3C(=O)N[C@H](C(=O)N[C@H](C(=O)O)c4cc(O)cc(O)c4-c4cc3ccc4O)[C@H](O)c3ccc(c(Cl)c3)Oc3cc2cc(c3O[C@@H]2O[C@H](CO)[C@@H](O)[C@H](O)[C@H]2O[C@H]2C[C@](C)(N)[C@H](O)[C@H](C)O2)Oc2ccc(cc2Cl)[C@H]1O [VANCOMYCIN]
MIC [1]: < 1 µM | MIC [2]: < 1 µM | MIC [3]: < 1 µM | MIC [4]: < 1 µM | MIC [5]: < 1 µM | MIC [6]: < 1 µM
